PMC10077475, “DG9-conjugated morpholino rescues phenotype in SMA mice by reaching the CNS via a subcutaneous administration” (JCI Insight, 2023)

Columns and labels:
[1] = tested on: neuromuscular junctions of SMA mice; assay: NMJ staining, innervation of quadriceps and intercostal muscles; format: in vivo, mouse; details: 40 mg/kg s.c. at PD0, quadriceps and intercostal muscles at PD30, 300–500 NMJs per group
Description: We assessed the NMJ architecture of the quadriceps and the intercostal muscles at PD30 to understand the phenotypic rescue following injections at PD0 (Figure 5A). […] Although there was no statistical significance, we observed upregulation of both atrogenes in the unconjugated PMO–treated mice and upregulation of only Atrogin-1 in MOE-treated mice in the quadriceps muscle at approximately PD30. […] We also evaluated the expressions of muscle specific kinase (MuSK) and acetylcholine receptor alpha (AChRα), which play a crucial role in NMJ formation and maintenance ([46]–[50]). […] The findings corroborate our hypothesis that DG9-PMO treatment rescues the crosstalk between the muscle and the neurons by improving muscle pathology and the characteristics of NMJs.
NMJ staining was carried out as previously described ([71]). Briefly, the quadriceps and the intercostal muscle were fixed in 4 % paraformaldehyde (PFA) for 2 hours. The muscles were washed quickly with PBS and blocked with 5% goat serum and 2 % Triton-X in PBS for 1 hour at RT. This was followed by overnight incubation at 4°C with the primary mouse monoclonal antibodies anti-neurofilament clone 2H3 (1:100) and […] (1:500) (DSHB). […] The synaptic area was quantified using ImageJ. […]

severe SMA mouse model [2] = assay: Whole-body plethysmography, breathing function at PD7; format: in vivo; details: for respiratory parameters under hypoxia (11% O2): 40 mg/kg s.c. at PD0, PD7
Description: The majority of patients with SMA suffer from compromised breathing functions and rely on an external source of breathing support. To evaluate the effects of DG9-PMO treatment on breathing function, we performed whole-body plethysmography recordings at PD7 under normoxic (21% O2) and hypoxic (11% O2) conditions (Figure 3A). […] The NT mice on the other hand had slow, irregular breathing denoted by a higher coefficient of variation of frequency (CV, a measure of relative variability) and marked apneas (absence of airflow/pressure changes for a period equivalent to or greater than 2 complete respiratory cycles) (Figure 3, B and F).
Measurements were performed in whole-body, cylindrical, transparent, plexiglass plethysmographs (Validyne Engineering) that had 1 inflow and 2 outflow ports for the continuous delivery of fresh room air and removal of expired carbon dioxide ([75], [76]). […] The gas was mixed with gas mixer (GSM-3, CWE), delivered from compressed pure oxygen and pure nitrogen cannisters, being monitored using 0–200 mL/min gas regulators (Porter Instrument Company). […] For PD30, the plethysmograph was recorded at RT of around 22°C. Pressure changes were detected with a pressure transducer (DP 103; Validyne) and signal conditioner (CD-15; Validyne), recorded with data acquisition software (Axoscope) via analog-digital board (Digidata 1322A). […] VT and fR were measured with blood pressure settings using Labchart 8 (ADInstruments). Threshold levels for bursts were set, and bursts were then automatically detected so that frequency (calculated from cycle duration) and VT (calculated from maximal pressure minus minimal pressure) values were interpreted. […]
Respiratory parameters were calculated over an average of 1 minute of continuous plethysmography recordings. […]

severe SMA mouse model [3] = assay: Righting reflex test; format: in vivo; details: 40 mg/kg s.c. at PD0, compared with the other groups
Description: (§1) To evaluate the effects of systemic DG9-PMO treatment on muscle strength and the function of motor neurons, we used several functional tests and compared motor function in the treated and NT mice at various time points. We performed the hind limb suspension (HLS) assay and the righting reflex test during the early weeks of life. […] It should be noted that the results beyond PD12 are biased, as only the healthiest unconjugated PMO–, MOE-, and R6G-PMO–treated mice survived to these time points.
This spontaneous ability of the mice to right themselves up was tested from PD2 until the weaning stage PD20. The neonates were placed on their backs, and the time taken to reposition and place all 4 paws on the ground was noted. The recording time was a maximum of 60 seconds. Each neonate underwent 3 trials, with a resting period of at least 10 minutes between trials. The data are expressed as the mean time to complete the righting reflex test ± SEM.

severe SMA mouse model [4] = assay: Hind limb suspension (HLS) assay (tube test); format: in vivo; details: 40 mg/kg s.c. at PD0, PD2–PD12
Description: as §1
This test was performed on neonatal mice PD2–PD12 as described in Treat NMD protocol SMA_M.2.2.001 ([72]). Briefly, neonatal mice were suspended on their hind limbs from a tube. They were scored based on the position of the hind limbs and their latency to fall was recorded with a 30-second cutoff. Each neonatal pup underwent 3 trials, with a 15-minute break between each trial. The average score was noted by the observer under a blinded test protocol.

| Molecule | full innervation of peripheral synapses (NMJs) [1] | respiratory parameters under hypoxia (11% O2) (severe SMA mouse model [2]) | time to right (righting reflex) (severe SMA mouse model [3]) | respiratory phenotype under normoxic conditions (21% O2) (severe SMA mouse model [2]; 40 mg/kg s.c. at PD0, PD7, majority of the mice) | hind limb strength (HLS score) (severe SMA mouse model [4]) |
| --- | --- | --- | --- | --- | --- |
| unconjugated PMO: PMO targeting ISS-N1 intron 7 (5′ TCACTTTCATAATGCTGG 3′), purchased from Gene Tools LLC (all phosphorodiamidate morpholino (PMO)) [reference compound] | 40%–50% | slow, weak, and irregular breathing when compared with the Hets | – | – | – |
| CC(=O)N[C@@H](Cc1ccc(O)cc1)C(=O)N[C@@H](C)C(=O)N[C@H](CCCNC(=N)N)C(=O)N[C@H](C(=O)N[C@@H](CCCNC(=N)N)C(=O)N[C@@H](CCCNC(=N)N)C(=O)N[C@H](CCCNC(=N)N)C(=O)NCC(=O)N1CCC[C@H]1C(=O)N[C@@H](CCCNC(=N)N)C(=O)NCC(=O)N[C@@H](Cc1ccc(O)cc1)C(=O)N[C@@H](C)C(=O)N[C@H](CCCNC(=N)N)C(=O)N[C@H](C(=O)N[C@@H](CCCNC(=N)N)C(=O)N[C@@H](CCCNC(=N)N)C(=O)N[C@H](CCCNC(=N)N)C(=O)NCC(=O)N1CCC[C@H]1C(=O)N[C@@H](CCCNC(=N)N)C(=O)N[C@H](CCCNC(=N)N)C(=O)N1C[C@@H](COP(=O)(N(C)C)N2C[C@@H](COP(=O)(N(C)C)N3C[C@@H](COP(=O)(N(C)C)N4C[C@@H](COP(=O)(N(C)C)N5C[C@@H](COP(=O)(N(C)C)N6C[C@@H](COP(=O)(N(C)C)N7C[C@@H](COP(=O)(N(C)C)N8C[C@@H](COP(=O)(N(C)C)N9C[C@@H](COP(=O)(N(C)C)N%10C[C@@H](COP(=O)(N(C)C)N%11C[C@@H](COP(=O)(N(C)C)N%12C[C@@H](COP(=O)(N(C)C)N%13C[C@@H](COP(=O)(N(C)C)N%14C[C@@H](COP(=O)(N(C)C)N%15C[C@@H](COP(=O)(N(C)C)N%16C[C@@H](COP(=O)(N(C)C)N%17C[C@@H](COP(=O)(N(C)C)N%18C[C@@H](COP(=O)(N(C)C)N%19CCC(C(N)=O)CC%19)O[C@@H](n%19cc(C)c(=O)[nH]c%19=O)C%18)O[C@@H](n%18ccc(N)nc%18=O)C%17)O[C@@H](n%17cnc%18c(N)ncnc%18%17)C%16)O[C@@H](n%16ccc(N)nc%16=O)C%15)O[C@@H](n%15cc(C)c(=O)[nH]c%15=O)C%14)O[C@@H](n%14cc(C)c(=O)[nH]c%14=O)C%13)O[C@@H](n%13cc(C)c(=O)[nH]c%13=O)C%12)O[C@@H](n%12ccc(N)nc%12=O)C%11)O[C@@H](n%11cnc%12c(N)ncnc%12%11)C%10)O[C@@H](n%10cc(C)c(=O)[nH]c%10=O)C9)O[C@@H](n9cnc%10c(N)ncnc%109)C8)O[C@@H](n8cnc9c(N)ncnc98)C7)O[C@@H](n7cc(C)c(=O)[nH]c7=O)C6)O[C@@H](n6cnc7c(=O)[nH]c(N)nc76)C5)O[C@@H](n5ccc(N)nc5=O)C4)O[C@@H](n4cc(C)c(=O)[nH]c4=O)C3)O[C@@H](n3cnc4c(=O)[nH]c(N)nc43)C2)O[C@@H](n2cnc3c(=O)[nH]c(N)nc32)C1)C(C)C)C(C)C (stereo partly shown) [DG9-PMO] | more than 60% | increase in the respiratory parameters fR, VE, and VT relative to normoxia | significantly shorter time to right themselves on their paws between PD6 and PD10 | did not exhibit any respiratory phenotype | hind limb strength comparable to the Hets at PD12 |
